This experiment concerns Plasmodium berghei. Briefly: Luciferase/luciferin-expressing antifolate-resistant parasites were used to infect a culture of HepG2 cells that were pre-incubated with compounds. Infected hepatocytes emit light due to the luciferase reaction. Assay results are presented as the percent inhibition of light emission compared to control. […]. The format is functional. The note with it: sporozoite; for IC90: read-out: LUCIFERASE INFECTION ASSAY - IC90.

SMILES strings stand for the structures.

Take `Cc1ccc(-n2c(C)cc(C(=O)COC(=O)c3cccnc3O)c2C)cc1C`: the IC90 amounted to 6.62 µM. For the same compound, for the setting “PBLUC_HILL_SLOPE 1.34, PBLUC_R_SQUARED 0.562, read-out: LUCIFERASE INFECTION ASSAY - IC50”, the IC50 turned out to be 1.29 µM.

With `CCOC(=O)c1cnn(-c2ccc(Cc3ccc(-n4ncc(C(=O)OCC)c4C)cc3)cc2)c1C`, the IC90 was above 6.98 µM. For the same compound, where the note is “PBLUC_HILL_SLOPE 1.32, PBLUC_R_SQUARED 0.439, read-out: LUCIFERASE INFECTION ASSAY - IC50”, the IC50 was 2.06 µM.

Regarding `CN(C)CCNc1ccnc2c(-c3ccccc3Oc3ccccc3)cnn12`, the IC90 is above 8.84 µM. For the same compound, where the note is “PBLUC_HILL_SLOPE 1.31, PBLUC_R_SQUARED 0.651, read-out: LUCIFERASE INFECTION ASSAY - IC50”, the IC50 came out at 5.14 µM.

Turning to `O=C(Nc1ccccc1)Nc1ccccc1Sc1nccc(C(F)(F)F)n1`, the IC90 was 8.05 µM. The IC50 (PBLUC_HILL_SLOPE 1.34, PBLUC_R_SQUARED 0.717, read-out: LUCIFERASE INFECTION ASSAY - IC50) is 1.57 µM.

For `O=[N+]([O-])c1ccc(Oc2c(Cl)cc(Cl)cc2Cl)cc1`, the IC90 is above 10.4 µM. Besides, for the setting “PBLUC_HILL_SLOPE 1.34, PBLUC_R_SQUARED 0.555, read-out: LUCIFERASE INFECTION ASSAY - IC50”, the IC50 amounted to 3.75 µM.

As to `COc1cc(CCC2CCN(CC(=O)c3c(N)n(C)c(=O)n(C)c3=O)CC2)cc(OC)c1`, the IC90 is above 10 µM. Moreover, under “PBLUC_HILL_SLOPE 1.27, PBLUC_R_SQUARED 0.409, read-out: LUCIFERASE INFECTION ASSAY - IC50”, the IC50 was found to be 5.13 µM.

Regarding `CCOc1ccc(C(C)=O)cc1CSc1nc2scc(-c3ccccc3)c2c(=O)n1C`, the IC90 was above 10 µM. In addition, the IC50 (PBLUC_HILL_SLOPE 1.32, PBLUC_R_SQUARED 0.21, read-out: LUCIFERASE INFECTION ASSAY - IC50) is above 10 µM.

`COc1cc(-c2cc3[nH]c4ccccc4n3c(=O)c2Sc2ccc([N+](=O)[O-])cc2)cc(OC)c1OC`: the concentration for an effect of 90% (IC90) came to 9.18 µM. Where the note is “PBLUC_HILL_SLOPE 1.34, PBLUC_R_SQUARED 0.513, read-out: LUCIFERASE INFECTION ASSAY - IC50”, the IC50 was determined as 1.78 µM.

For the compound `O=C(NNC(=O)c1sccc1OCc1ncc(C(F)(F)F)cc1Cl)c1ccccc1`, the IC90 was above 7.24 µM. In addition, the IC50 (PBLUC_HILL_SLOPE 1.3, PBLUC_R_SQUARED 0.614, read-out: LUCIFERASE INFECTION ASSAY - IC50) turned out to be 4.13 µM.

Turning to `COCCCn1c(SCc2ccc(C)cc2)nnc1-c1ccc(C(C)(C)C)cc1`, the IC90 is above 8.06 µM. In addition, the IC50 (PBLUC_HILL_SLOPE 1.28, PBLUC_R_SQUARED 0.571, read-out: LUCIFERASE INFECTION ASSAY - IC50) is above 8.06 µM.

Turning to `CCCc1cc(-n2ccnc2)n2ncc(-c3ccccc3)c2n1`, the IC90 was above 10.9 µM. Also, the 50% inhibitory concentration (IC50) (PBLUC_HILL_SLOPE 1.29, PBLUC_R_SQUARED 0.543, read-out: LUCIFERASE INFECTION ASSAY - IC50) was 5.89 µM.

`CN1CCN(c2ccc(Cl)cc2NC(=O)c2cccc(Oc3ccccc3)c2)CC1`: the IC90 stood at 2.23 µM. The IC50 (PBLUC_HILL_SLOPE 1.31, PBLUC_R_SQUARED 0.699, read-out: LUCIFERASE INFECTION ASSAY - IC50) was 0.415 µM.

For `N#CC(c1ccccc1)c1ccc(NC(=S)NCC2CCCO2)cc1Cl` (centres undefined), the IC90 is above 10 µM. Where the note is “PBLUC_HILL_SLOPE 1.33, PBLUC_R_SQUARED 0.895, read-out: LUCIFERASE INFECTION ASSAY - IC50”, the IC50 came to 4.42 µM.

As to `CCSc1nccc(-c2ccc3c(c2)CCC(C)(C)O3)n1`, the IC90 amounted to 3.37 µM. Moreover, for the setting “PBLUC_HILL_SLOPE 1.33, PBLUC_R_SQUARED 0.696, read-out: LUCIFERASE INFECTION ASSAY - IC50”, the IC50 worked out at 0.648 µM.

Turning to `CCCNC(=O)c1c(NC(=O)c2ccc(F)cc2)nc2ccc(C)cn12`, the IC90 was above 9.31 µM. Besides, the IC50 (PBLUC_HILL_SLOPE 1.32, PBLUC_R_SQUARED 0.773, read-out: LUCIFERASE INFECTION ASSAY - IC50) was 3.1 µM.

With `CC(=O)Nc1ccc(NC(=O)/C=C/c2cc(C)n(-c3ccccc3)c2C)c(C(F)(F)F)c1`, the IC90 is 9.3 µM. Moreover, for the setting “PBLUC_HILL_SLOPE 1.31, PBLUC_R_SQUARED 0.816, read-out: LUCIFERASE INFECTION ASSAY - IC50”, the IC50 was 1.74 µM.

Regarding `CC(C)NC(=O)C1(C)CCN1C(=O)c1ccc(-c2ccccc2)cc1` (centres undefined), the IC90 is above 9.81 µM. The 50% inhibitory concentration (IC50) (PBLUC_HILL_SLOPE 1.28, PBLUC_R_SQUARED 0.251, read-out: LUCIFERASE INFECTION ASSAY - IC50) was above 9.81 µM.

For the compound `CC(C)c1cc(Cl)n2ncc(-c3ccccc3)c2n1`, the IC90 is above 12.1 µM. Moreover, the IC50 (PBLUC_HILL_SLOPE 1.33, PBLUC_R_SQUARED 0.849, read-out: LUCIFERASE INFECTION ASSAY - IC50) came out at 4.61 µM.

With `CCOC(=O)c1c(C)[nH]c(C(=O)Nc2ncccc2C)c1C`, the IC90 is above 10 µM. Besides, where the note is “PBLUC_HILL_SLOPE 1.33, PBLUC_R_SQUARED 0.354, read-out: LUCIFERASE INFECTION ASSAY - IC50”, the IC50 is 2.54 µM.

On to `OC[C@H]1O[C@@H](c2nc(-c3nc(-c4ccc5c(c4)OCO5)no3)cs2)C[C@@H]1O`, for which the IC90 was 2.15 µM. In addition, the IC50 (PBLUC_HILL_SLOPE 1.28, PBLUC_R_SQUARED 0.808, read-out: LUCIFERASE INFECTION ASSAY - IC50) amounted to 0.386 µM.

As for `Cc1cc(C)n2ncc(C(=O)Nc3cccc(/C=C/c4ccccn4)c3)c2n1`, the IC90 worked out at 8.17 µM. The IC50 (PBLUC_HILL_SLOPE 1.28, PBLUC_R_SQUARED 0.742, read-out: LUCIFERASE INFECTION ASSAY - IC50) amounted to 1.46 µM.

For `CCc1cccc2c(C(=O)CN3CCC(C(=O)N4CCCCCC4)CC3)c[nH]c12`, the IC90 is above 10 µM. For the same compound, the IC50 (PBLUC_HILL_SLOPE 1.3, PBLUC_R_SQUARED 0.149, read-out: LUCIFERASE INFECTION ASSAY - IC50) was above 10 µM.

With `CCN(CC)Cc1nc(N2CCN(Cc3c(C)nc4ccc(C)cn34)CC2)c2c(C)c(C)sc2n1`, the 90% effect concentration (IC90) is above 10 µM. Moreover, for the setting “PBLUC_HILL_SLOPE 1.28, PBLUC_R_SQUARED 0.354, read-out: LUCIFERASE INFECTION ASSAY - IC50”, the IC50 was 5.6 µM.

With `c1csc(SCc2ccc3nonc3c2)c1`, the IC90 was above 13.3 µM. For the same compound, under “PBLUC_HILL_SLOPE 1.33, PBLUC_R_SQUARED 0.35, read-out: LUCIFERASE INFECTION ASSAY - IC50”, the IC50 is above 13.3 µM.

As to `O=C(c1c[nH]c2ccccc12)C(c1ccccc1)N1CCN(CC(=O)N2CCCC2)CC1` (centres undefined), the IC90 was above 10 µM. Moreover, for the setting “PBLUC_HILL_SLOPE 1.28, PBLUC_R_SQUARED 0.65, read-out: LUCIFERASE INFECTION ASSAY - IC50”, the IC50 is 3.5 µM.

`COc1cc(C(=O)OCC(=O)c2ccc(-c3ccccc3)cc2)c([N+](=O)[O-])cc1OC`: the IC90 is above 10 µM. For the same compound, the concentration for half-maximal inhibition (IC50) (PBLUC_HILL_SLOPE 1.3, PBLUC_R_SQUARED 0.199, read-out: LUCIFERASE INFECTION ASSAY - IC50) is above 10 µM.

Take `Cc1cc(CSc2ccccc2)ccc1NC(=O)Nc1ccccc1`: the IC90 is above 9.47 µM. Moreover, under “PBLUC_HILL_SLOPE 1.29, PBLUC_R_SQUARED 0.521, read-out: LUCIFERASE INFECTION ASSAY - IC50”, the IC50 came to 2.22 µM.

The IC50 is the concentration that inhibits the measured activity by half. In general, IC90 refers to the concentration needed for an effect of 90%.

The values above are taken from ChEMBL document CHEMBL4483862, “Open-source discovery of chemical leads for next-generation chemoprotective antimalarials” (2018).
